From publication PMC8952364, “Polyphenols as Inhibitors of Antibiotic Resistant Bacteria—Mechanisms Underlying Rutin Interference with Bacterial Virulence” (Pharmaceuticals, 2022)
Converted amounts (≈) assume the structure as drawn. Read-outs that look alike come from different tables or passages of the source.

How the values were obtained:
[1] = tested on: Methicillin resistant S. aureus IBRS MRSA 011; experiment: Antimicrobial microdilution assay (MIC/MBC); type: cell-based, Staphylococcus aureus; conditions: for MIC: 37 °C, 24 h; for MBC: subcultivation, 24 h at 37 °C
Experimental: (§1) The bacterial suspension (0.5 Mc Farland) was prepared, and twenty-fold dilutions of these suspensions were mixed in a 1:10 ratio with the corresponding polyphenol dilution (0.0039–1 mg/mL). Microtiter plates were incubated at 37 °C for 24 h. The lowest concentrations without visible growth (under a binocular microscope) were defined as MICs. The bactericidal concentrations (MBCs) were determined by serial subcultivation of 2 μL of the well’s content and further incubation for 24 h at 37 °C. Streptomycin (SigmaAldrich, Darmstadt, Germany) was used as a positive control. The polyphenols were obtained from Extrasynthese, Rhone, France (rutin, isoquercitrin) and SigmaAldrich, Germany (hesperetin, hesperidin, naringenin, naringin, taxifolin, morin, chlorogenic acid, ferulic acid, p-coumaric acid, and gallic acid). The stock compounds were prepared in ethanol (30%), and adequate ethanol concentrations were used as the negative control in the assays. Experiments were done in triplicate.

[2] = tested on: P. aeruginosa IBRS P001 biofilm; experiment: Crystal violet antibiofilm assay (biofilm formation); type: cell-based, Pseudomonas aeruginosa; conditions: MIC and sub-MIC, 24 h, crystal violet, Figure 1
Experimental: After incubation, each well was washed twice with sterile PBS (phosphate-buffered saline, pH 7.4) and fixed with methanol for 10 min. After removal of methanol the plate was air-dried. The biofilm was stained with 0.1% crystal violet (Bio-Merieux, Marcy l’Etoile, France) for 30 min. The plate was washed with water, air dried, and the stain was dissolved with 200 μL of 96% ethanol (Zorka, Sabac, Serbia). The absorbance was read at 620 nm on a Multiskan™ FC microplate photometer (Thermo Scientific™, Waltham, MA, USA). The results are presented as biofilm forming capacity (%) compared to control.

HaCaT cells = experiment: Cytotoxicity in HaCaT cell line (crystal violet assay); type: cell-based, human
Experimental: For determination of the polyphenols’ cytotoxic effect, a crystal violet assay was used, with modifications. The cytotoxic effect of polyphenols was analyzed on spontaneously immortalized human skin keratinocytes (HaCaT, AddexBio No. T0020001, San Diego, CA, USA) cell lines. […] Cells (1 × 10^4 cells/well) were seeded in a 96-well plate (Sarstedt, Nümbrecht, Germany) 24 h before treatment. […] Cells were incubated with the compounds for 24 h. […] After crystal violet was removed, the plates were washed in a stream of tap water and left to air-dry at room temperature for 24 h. The absorbance was measured in a microplate reader (Multiskan™ FC Microplate Photometer, Thermo Scientific™) at 590 nm. The results were expressed as IC50 value in μg/mL. The criterion used to categorize the cytotoxic activity polyphenols was as follows: […] All analyses were performed in triplicate; each replicate was also quantified three times. Data were expressed as mean standard deviation, where applicable.

A. xylosoxidans 37F = experiment: Antimicrobial microdilution assay (MIC/MBC); type: cell-based, Achromobacter xylosoxidans; conditions: for MIC: 37 °C, 24 h; for MBC: subcultivation, 24 h at 37 °C
Experimental: as §1

[3] = tested on: Escherichia coli K-12 MG1655, Salmonella enterica serovar Typhimurium LT2, and Pseudomonas putida ATCC 795; set-up: method as in PMID 18045389; conditions: cited from earlier work
E. coli IBRS E003 = experiment: Antimicrobial microdilution assay (MIC/MBC); type: cell-based, Escherichia coli; conditions: for MIC: 37 °C, 24 h; for MBC: subcultivation, 24 h at 37 °C
Experimental: as §1

E. coli IMD989 = experiment: Antimicrobial microdilution assay (MIC/MBC); type: cell-based, Escherichia coli; conditions: for MIC: 37 °C, 24 h; for MBC: subcultivation, 24 h at 37 °C
Experimental: as §1

S. infantis 1371/1 = experiment: Antimicrobial microdilution assay (MIC/MBC); type: cell-based, Salmonella Infantis; conditions: for MIC: 37 °C, 24 h; for MBC: subcultivation, 24 h at 37 °C
Experimental: as §1

K. pneumoniae Ni9 = experiment: Antimicrobial microdilution assay (MIC/MBC); type: cell-based, Klebsiella pneumoniae; conditions: for MIC: 37 °C, 24 h; for MBC: subcultivation, 24 h at 37 °C
Experimental: as §1

K. pneumoniae IT977 = experiment: Antimicrobial microdilution assay (MIC/MBC); type: cell-based, Klebsiella pneumoniae; conditions: for MIC: 37 °C, 24 h; for MBC: subcultivation, 24 h at 37 °C
Experimental: as §1

A. baumannii S2/2 = experiment: Antimicrobial microdilution assay (MIC/MBC); type: cell-based, Acinetobacter baumannii; conditions: for MIC: 37 °C, 24 h; for MBC: subcultivation, 24 h at 37 °C
Experimental: as §1

A. baumannii 6077/12 = experiment: Antimicrobial microdilution assay (MIC/MBC); type: cell-based, Acinetobacter baumannii; conditions: for MIC: 37 °C, 24 h; for MBC: subcultivation, 24 h at 37 °C
Experimental: as §1

P. aeruginosa MMA83 = experiment: Antimicrobial microdilution assay (MIC/MBC); type: cell-based, Pseudomonas aeruginosa; conditions: for MIC: 37 °C, 24 h; for MBC: subcultivation, 24 h at 37 °C
Experimental: as §1

P. aeruginosa IBRS P001 = experiment: Antimicrobial microdilution assay (MIC/MBC); type: cell-based, Pseudomonas aeruginosa; conditions: for MIC: 37 °C, 24 h; for MBC: subcultivation, 24 h at 37 °C
Experimental: as §1

[4] = tested on: eleven antibiotic resistant strains of bacteria; experiment: Antimicrobial assay, summary over the examined strains; type: cell-based; conditions: summary of Table 1
Experimental: as §1

[5] = tested on: E. coli (0157:H7 ATCC 51659); set-up: method as in PMID 34073447; conditions: cited from earlier work
[6] = tested on: P. aeruginosa (NRRLB-272); set-up: method as in PMID 34073447; conditions: cited from earlier work
S. aureus (ATCC 25923) = tested on: S. aureus (ATCC 25923); set-up: method as in PMID 34073447; conditions: cited from earlier work

Compound: COc1ccc([C@@H]2CC(=O)c3c(O)cc(O)cc3O2)cc1O [Hesperetin, hesperetin]
- MIC ([1]; Staphylococcus aureus, MRSA, read-out: MIC): 500 µg/mL (≈ 1650 µM)
- MBC ([1]; Staphylococcus aureus, MRSA, read-out: MBC): 1000 µg/mL (≈ 3310 µM)
- reduction of biofilm formation (biomass), in words [2]: significant (****, p < 0.0001) reduction
- cytotoxicity towards HaCaT, in words (HaCaT cells): non-cytotoxic properties
- IC50 (HaCaT cells; Homo sapiens, HaCaT, 24 h treatment, crystal violet, read-out: IC50 (compound concentration that inhibited 50% of the cell growth)): > 1000 µg/mL
- MIC (A. xylosoxidans 37F; Achromobacter xylosoxidans, 37F, read-out: MIC): 1000 µg/mL (≈ 3310 µM)
- MBC (A. xylosoxidans 37F; Achromobacter xylosoxidans, 37F, read-out: MBC): 1000 µg/mL (≈ 3310 µM)
- MIC [3]: ≥ 1 mg/mL
- MIC (E. coli IBRS E003; Escherichia coli, IBRSE003, read-out: MIC): > 1000 µg/mL
- MBC (E. coli IBRS E003; Escherichia coli, IBRSE003, read-out: MBC): > 1000 µg/mL
- MIC (E. coli IMD989; Escherichia coli, IMD989, read-out: MIC): > 1000 µg/mL
- MBC (E. coli IMD989; Escherichia coli, IMD989, read-out: MBC): > 1000 µg/mL
- MIC (S. infantis 1371/1; Salmonella enterica, 1371/1, read-out: MIC): > 1000 µg/mL
- MBC (S. infantis 1371/1; Salmonella enterica, 1371/1, read-out: MBC): > 1000 µg/mL
- MIC (K. pneumoniae Ni9; Klebsiella pneumoniae, NI9, read-out: MIC): 1000 µg/mL (≈ 3310 µM)
- MBC (K. pneumoniae Ni9; Klebsiella pneumoniae, NI9, read-out: MBC): 1000 µg/mL (≈ 3310 µM)
- MIC (K. pneumoniae IT977; Klebsiella pneumoniae, IT977, read-out: MIC): > 1000 µg/mL
- MBC (K. pneumoniae IT977; Klebsiella pneumoniae, IT977, read-out: MBC): > 1000 µg/mL
- MIC (A. baumannii S2/2; Acinetobacter baumannii, S2/2, read-out: MIC): 500 µg/mL (≈ 1650 µM)
- MBC (A. baumannii S2/2; Acinetobacter baumannii, S2/2, read-out: MBC): 500 µg/mL (≈ 1650 µM)
- MIC (A. baumannii 6077/12; Acinetobacter baumannii, 6077/12, read-out: MIC): 500 µg/mL (≈ 1650 µM)
- MBC (A. baumannii 6077/12; Acinetobacter baumannii, 6077/12, read-out: MBC): 500 µg/mL (≈ 1650 µM)
- MIC (P. aeruginosa MMA83; Pseudomonas aeruginosa, MMA83, read-out: MIC): 1000 µg/mL (≈ 3310 µM)
- MBC (P. aeruginosa MMA83; Pseudomonas aeruginosa, MMA83, read-out: MBC): 1000 µg/mL (≈ 3310 µM)
- MIC (P. aeruginosa IBRS P001; Pseudomonas aeruginosa, IBRSP001, read-out: MIC): 500 µg/mL (≈ 1650 µM)
- MBC (P. aeruginosa IBRS P001; Pseudomonas aeruginosa, IBRSP001, read-out: MBC): 1000 µg/mL (≈ 3310 µM)
- MIC towards a range of antibiotic-resistant bacterial strains [4]: ≥ 0.5 mg/mL

Compound: COc1ccc([C@@H]2CC(=O)c3c(O)cc(O[C@@H]4O[C@H](CO[C@@H]5O[C@@H](C)[C@H](O)[C@@H](O)[C@H]5O)[C@@H](O)[C@H](O)[C@H]4O)cc3O2)cc1O [Hesperidin, hesperidin]
- MIC [1]: 500 µg/mL (≈ 819 µM)
- MBC [1]: 1000 µg/mL (≈ 1640 µM)
- reduction of biofilm formation (biomass), in words [2]: significant (****, p < 0.0001) reduction
- cytotoxicity towards HaCaT, in words (HaCaT cells; HaCaT, 24 h): non-cytotoxic properties
- IC50 (compound concentration that inhibited 50% of the cell growth) (HaCaT cells; HaCaT, 24 h treatment, crystal violet): >1 mg/mL
- cytotoxicity category (HaCaT cells; HaCaT, maximal tested concentrations (1 mg/mL)): no cytotoxicity (IC50 > 501 µg/mL = no cytotoxicity)
- MIC [5]: 1.13 mg/mL (≈ 1850 µM)
- MIC (A. xylosoxidans 37F): 1000 µg/mL (≈ 1640 µM)
- MBC (A. xylosoxidans 37F): 1000 µg/mL (≈ 1640 µM)
- MIC (E. coli IBRS E003): >1000 µg/mL
- MBC (E. coli IBRS E003): >1000 µg/mL
- MIC (E. coli IMD989): >1000 µg/mL
- MBC (E. coli IMD989): >1000 µg/mL
- MIC [6]: 1.27 mg/mL (≈ 2080 µM)
- MIC (S. infantis 1371/1): >1000 µg/mL
- MBC (S. infantis 1371/1): >1000 µg/mL
- MIC (K. pneumoniae Ni9): 1000 µg/mL (≈ 1640 µM)
- MBC (K. pneumoniae Ni9): 1000 µg/mL (≈ 1640 µM)
- MIC (K. pneumoniae IT977): 1000 µg/mL (≈ 1640 µM)
- MBC (K. pneumoniae IT977): 1000 µg/mL (≈ 1640 µM)
- MIC (A. baumannii S2/2): 500 µg/mL (≈ 819 µM)
- MBC (A. baumannii S2/2): 500 µg/mL (≈ 819 µM)
- MIC (A. baumannii 6077/12): 500 µg/mL (≈ 819 µM)
- MBC (A. baumannii 6077/12): 500 µg/mL (≈ 819 µM)
- MIC (P. aeruginosa MMA83): 1000 µg/mL (≈ 1640 µM)
- MBC (P. aeruginosa MMA83): 1000 µg/mL (≈ 1640 µM)
- MIC (P. aeruginosa IBRS P001): 500 µg/mL (≈ 819 µM)
- MBC (P. aeruginosa IBRS P001): 1000 µg/mL (≈ 1640 µM)
- MIC (S. aureus (ATCC 25923)): 1.53 mg/mL (≈ 2510 µM)
- MIC towards a range of antibiotic-resistant bacterial strains [4]: ≥ 0.5 mg/mL
